Assay results taken from patent US6995184B2, “3-arylindole derivatives and their use as CB2 receptor agonists” (Sanofi-Aventis, priority 2000, dated 2006).

Target: T1, cannabinoid receptors present in the mouse spleen (Mus musculus, UniProt P47936)
T1 construct: from tissue; host or cells: mouse spleen
Test: In vivo affinity for cannabinoid receptors in mouse spleen after oral administration
Experimental: The tests were carried out according to the experimental conditions described by Rinaldi-Carmona et al., J. Pharmacol. Exp. Ther., 1998, 284, 644–650.
Thus, the compounds of Examples 7, 44, 46, 72, 89, 106, 120, 130 and 132, for which the ratio of the affinity for the CB1 receptors to that for the CB2 receptors is between 400 and 4 000, are active orally with an ED50 of between 0.2 mg/kg and 20 mg/kg.

T1 sequence (P47936 whole entry): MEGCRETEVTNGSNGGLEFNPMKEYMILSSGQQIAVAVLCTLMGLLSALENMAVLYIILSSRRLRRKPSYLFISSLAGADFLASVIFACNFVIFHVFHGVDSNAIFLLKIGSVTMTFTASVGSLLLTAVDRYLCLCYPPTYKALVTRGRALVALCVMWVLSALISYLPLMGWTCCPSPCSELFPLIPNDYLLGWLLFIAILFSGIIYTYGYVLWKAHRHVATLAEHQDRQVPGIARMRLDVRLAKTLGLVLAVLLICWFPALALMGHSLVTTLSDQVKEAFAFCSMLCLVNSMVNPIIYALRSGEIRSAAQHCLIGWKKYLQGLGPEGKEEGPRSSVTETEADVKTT

| SMILES | ED50 [mg/kg] |
| --- | --- |
| Cc1c(C(=O)c2cccc(Cl)c2Cl)c2cccc(Br)c2n1CCCS(C)(=O)=O [Example 7, (7-Bromo-2-methyl-1-(3-(methylsulphonyl)propyl)-1H-indol-3-yl)(2,3-dichlorophenyl)methanone] | 0.2 to 20 |
| Cc1c(C(=O)c2cccc(C(F)(F)F)c2F)c2ccc(Cl)c(Cl)c2n1CCCNS(C)(=O)=O [Example 72, N-(3-(6,7-Dichloro-3-[2-fluoro-3-(trifluoromethyl)benzoyl]-2-methyl-1H-indol-1-yl)propyl)methanesulphonamide] | 0.2 to 20 |
